Holding throughout (format): in vivo, human
Test [1] relates to persistent Herpes 1 and Herpes 4 infections. The experiment in a line: Case Study 4: person with memory problems, dementia consistent with Alzheimer's disease. The note with it: after six months. Here is the method:
A person presented for evaluation of memory problems. Cognitive testing was consistent with dementia. A SPECT functional brain scan was performed. The results were consistent with Alzheimer's disease. […] The patient was started on antiviral therapy with valacyclovir 1000 mg two times per day orally. The valacyclovir was stopped and famciclovir was started at 500 mg two times per day orally. After one month, the famciclovir was increased to 1000 mg two times per day orally. […] was added to their regimen at a dose of 500 mg two times per day orally. […] Family members were thrilled with the improvement.

For test [2], the system named is persistent Herpes 4 and Herpes 6 infections. The experiment in a line: Case Study 5: person with severe fatigue. Here is the method:
An active person had struggled with depression and obsessive-compulsive disorder in the past, but these problems were well-controlled with medications. They actively engaged in daily exercising, including skiing, bicycle riding, and vigorous walking. Suddenly, they developed severe fatigue. […] The patient was started on valacyclovir at a dose of 1000 mg two times per day orally. […] Then they were switched to famciclovir, titrating from 500 mg two times per day to 1000 mg two times per day orally. […] Within two months, the patient noted less fatigue.

For test [3], the system named is persistent Herpes 4 and 6 infections. The experiment in a line: Case Study 2: adult with multiple symptoms of VIFD (CFS, fibromyalgia, pain). The text has this: An adult presented with multiple symptoms of VIFD across multiple systems. They experienced fatigue, brain fog, and unrefreshing sleep consistent with CFS. They experienced muscle and joint pain with trigger point pain and exaggerated reactions to pain consistent with fibromyalgia. They experienced pelvic and vaginal pain, headaches, depression, anxiety, sore throat, painful lymph nodes, numbness, and generalized pain. The symptoms involved the central nervous system, the genitourinary system, the gastrointestinal system, the immune system, the musculoskeletal system and the peripheral nervous system. […] The dose of valacyclovir was increased to 2000 mg two times per day orally. […] NTZ was then added at 500 mg two times per day orally.

Test [4] concerns Epstein-Barr virus and Herpes 1 virus. The experiment in a line: Case Study 6: person with severe depression, IBS, brain fog, fatigue, headaches, SPECT. The note with it: valacyclovir 1000 mg two times per day orally; after three months. The text has this:
Scale illustrates levels of perfusion in a different manner from FIG. 1. The dark grey central portion of the scale illustrates statistically normal perfusion in a given area relative to a normative database. Areas of progressively lighter grey to white illustrate areas which are 2 standard deviation (SD), 3 SD, and 4 SD below the mean of the normative database, respectively.
A person presented with a history of depression since their teen years. They were severely depressed upon presentation (Quick Inventory of Depressive Symptomatology scale 26/27) and spent most of their time in their bedroom in the basement of their parent's house. They had withdrawn from college and had never held a full-time job. Their condition was complicated by irritable bowel syndrome, brain fog, pervasive fatigue, and headaches. […] The patient also underwent a functional brain scan (single photon emission computed tomography—SPECT). […] The patient was started on the antiviral valacyclovir at 1000 mg two times per day orally. […] NTZ was added at a dose of 500 mg two times per day orally. After one month, the dose of NTZ was increased to 1000 mg two times per day orally.

The test system of test [5] is persistent Herpes 4 and 6 infections. The experiment in a line: Case Study 3: late-middle-aged person with Parkinson's disease symptoms and depression, perfusion SPECT. The note with it: valacyclovir 1000 mg in the morning and 2000 mg at night orally; after three months. The text has this:
FIGS. 1A-1B show perfusion SPECT scan from Case Study 3. […] Scale illustrates levels of perfusion with normal perfusion at the central light grey and decreased perfusion illustrated by progressively darker shades of grey.
A late-middle-aged person presented for evaluation of Parkinson's disease and depression. They had been diagnosed with Parkinson's disease by a neurologist based on clinical signs of tremor and bradykinesia. No neuroimaging had been done. […] A single-photon emission computed tomography (SPECT) brain perfusion scan and a dopamine transporter SPECT scan (DaTscan) were ordered. […] The patient was started on antiviral therapy with valacyclovir at 1000 mg two times per day orally. The dose was increased to 1000 mg orally in the morning and 2000 mg orally at night. […] A repeat perfusion SPECT brain scan was performed (FIG. 1B).

In test [6] the test system is herpes 4 and 6 as persistent infections. The experiment in a line: Case Study 1: adult with CFS, anxiety and irritable bowel syndrome. The note with it: valacyclovir 1000 mg two times per day orally, alone. The procedure:
Antiviral therapy with valacyclovir at 1000 mg two times per day orally was begun. […] NTZ was added at 500 mg two times per day orally to the regimen.

On to `CC(=O)OCC(CCn1cnc2cnc(N)nc21)COC(C)=O` [famciclovir], for which the “memory function as reflected by scores on cognitive testing” value in test [1] (famciclovir 500 mg then 1000 mg two times per day orally) was “modest improvement”. Further, in test [1] (famciclovir 1000 mg two times per day orally), the daily memory function entry is reported as “struggled still with daily memory function”. Besides, the “symptoms of severe fatigue” value in test [2] (famciclovir titrated from 500 mg to 1000 mg two times per day orally, after three months) was “no improvement”.
Take `CC(C)[C@H](N)C(=O)OCCOCn1cnc2c(=O)[nH]c(N)nc21` [valacyclovir]: the symptoms entry in test [3] (valacyclovir 1000 mg two times per day orally, over three months) is “minor improvement”. Also, the symptoms entry in test [3] (valacyclovir increased to 2000 mg two times per day orally) is “slight additional benefit”. Moreover, in test [4], the clarity of thinking entry is listed as “could think more clearly”, the depression result is given as “somewhat less depressed”, the fatigue result is “somewhat less fatigued” and the improvement in symptoms entry is recorded as “roughly 20%”. For the same compound, the “symptoms of severe fatigue” value in test [2] (valacyclovir 1000 mg bid orally, after four months increased to 2000 mg two times per day) is given as “did not improve”. Besides, in test [5], the depression symptoms result is given as “marked improvement”; the energy and motivation entry is “improved energy and motivation”; the tremor and bradykinesia result was “continued to experience tremor and bradykinesia”. Further, in test [6], the “brain fog, anxiety, bowel movements” value is “still struggled with brain fog, anxiety, and frequent bowel movements”; the fatigue entry is recorded as “modest improvement in fatigue”; the “need to nap on a daily basis” value is “no longer needed to nap on a daily basis”.
For `CC(C)[C@H](N)C(=O)OCC(CO)OCn1cnc2c(=O)nc(N)[nH]c21` (some centres unmarked) [valganciclovir], in test [2] (valganciclovir titrated from 450 mg to 900 mg two times per day, after four months), the “symptoms of severe fatigue” value was “without improvement”.

Source of the values: patent US20240285589A1, “TREATMENT USING AN ANTIVIRAL COMPOUND AND NITAZOXANIDE” (priority 2021, published 2024).
